Measurements reported in patent US11021444B2, “Antiviral compounds” (priority 2013, dated 2021).
Read-outs that look alike come from different tables or passages of the source.

How the values were obtained:
[1] = target: recombinant RSV complex (Human respiratory syncytial virus A, UniProt P28887); experiment: RSV Polymerase Inhibition Assay; assay type: biochemical
How it was run: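 10 nM recombinant RSV polymerase complex in Tris-HCl pH 7.5, 6 mM MgCl2 with RNA oligonucleotide template and radionucleotides, incubated 2 h at 30 °C with increasing inhibitor concentrations. Reaction stopped with EDTA; radiolabeled RNA product counted by scintillation.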

[2] = Cytotoxicity Determination (CCK-8, without addition of virus); assay type: cell-based; conditions: human, 50% cytotoxicity concentration (CC50)
How it was run: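 HEp-2 cells were seeded at 1,500 cells/well one day before compound addition. Compounds were tested without virus in duplicate over 7 points from 100 μM in 1/2 steps, with 1% final DMSO, 5 days at 37 °C, 5% CO2. Viability was read by CCK-8 after 3-4 hours.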

[3] = tested on: Respiratory Syncytial Virus (RSV) long strain; experiment: microbe, parasite or virus in culture; assay type: cell-based; conditions: human respiratory syncytial virus, Tables A and B list compounds by EC50 band
How it was run: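 HEp-2 cells infected with 100 TCID50 virus per well, compounds in duplicate, 9-point 1/3 dilutions from 100 μM or 1 μM, 1% DMSO. After 5 days at 37 °C, cell viability (CPE protection) read by CCK-8 absorbance at 450 nm, 630 nm background.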

[4] = 120 h, read-out: 50% effective concentration (EC50), HEp-2 cells infected with RSV long strain, 5 days, CCK-8 readout
[5] = HEp-2, 120 h, read-out: 50% effective concentration (EC50), HEp-2 cells infected with RSV long strain, 5 days, CCK-8 readout

recombinant RSV complex, sequence (P28887 whole entry): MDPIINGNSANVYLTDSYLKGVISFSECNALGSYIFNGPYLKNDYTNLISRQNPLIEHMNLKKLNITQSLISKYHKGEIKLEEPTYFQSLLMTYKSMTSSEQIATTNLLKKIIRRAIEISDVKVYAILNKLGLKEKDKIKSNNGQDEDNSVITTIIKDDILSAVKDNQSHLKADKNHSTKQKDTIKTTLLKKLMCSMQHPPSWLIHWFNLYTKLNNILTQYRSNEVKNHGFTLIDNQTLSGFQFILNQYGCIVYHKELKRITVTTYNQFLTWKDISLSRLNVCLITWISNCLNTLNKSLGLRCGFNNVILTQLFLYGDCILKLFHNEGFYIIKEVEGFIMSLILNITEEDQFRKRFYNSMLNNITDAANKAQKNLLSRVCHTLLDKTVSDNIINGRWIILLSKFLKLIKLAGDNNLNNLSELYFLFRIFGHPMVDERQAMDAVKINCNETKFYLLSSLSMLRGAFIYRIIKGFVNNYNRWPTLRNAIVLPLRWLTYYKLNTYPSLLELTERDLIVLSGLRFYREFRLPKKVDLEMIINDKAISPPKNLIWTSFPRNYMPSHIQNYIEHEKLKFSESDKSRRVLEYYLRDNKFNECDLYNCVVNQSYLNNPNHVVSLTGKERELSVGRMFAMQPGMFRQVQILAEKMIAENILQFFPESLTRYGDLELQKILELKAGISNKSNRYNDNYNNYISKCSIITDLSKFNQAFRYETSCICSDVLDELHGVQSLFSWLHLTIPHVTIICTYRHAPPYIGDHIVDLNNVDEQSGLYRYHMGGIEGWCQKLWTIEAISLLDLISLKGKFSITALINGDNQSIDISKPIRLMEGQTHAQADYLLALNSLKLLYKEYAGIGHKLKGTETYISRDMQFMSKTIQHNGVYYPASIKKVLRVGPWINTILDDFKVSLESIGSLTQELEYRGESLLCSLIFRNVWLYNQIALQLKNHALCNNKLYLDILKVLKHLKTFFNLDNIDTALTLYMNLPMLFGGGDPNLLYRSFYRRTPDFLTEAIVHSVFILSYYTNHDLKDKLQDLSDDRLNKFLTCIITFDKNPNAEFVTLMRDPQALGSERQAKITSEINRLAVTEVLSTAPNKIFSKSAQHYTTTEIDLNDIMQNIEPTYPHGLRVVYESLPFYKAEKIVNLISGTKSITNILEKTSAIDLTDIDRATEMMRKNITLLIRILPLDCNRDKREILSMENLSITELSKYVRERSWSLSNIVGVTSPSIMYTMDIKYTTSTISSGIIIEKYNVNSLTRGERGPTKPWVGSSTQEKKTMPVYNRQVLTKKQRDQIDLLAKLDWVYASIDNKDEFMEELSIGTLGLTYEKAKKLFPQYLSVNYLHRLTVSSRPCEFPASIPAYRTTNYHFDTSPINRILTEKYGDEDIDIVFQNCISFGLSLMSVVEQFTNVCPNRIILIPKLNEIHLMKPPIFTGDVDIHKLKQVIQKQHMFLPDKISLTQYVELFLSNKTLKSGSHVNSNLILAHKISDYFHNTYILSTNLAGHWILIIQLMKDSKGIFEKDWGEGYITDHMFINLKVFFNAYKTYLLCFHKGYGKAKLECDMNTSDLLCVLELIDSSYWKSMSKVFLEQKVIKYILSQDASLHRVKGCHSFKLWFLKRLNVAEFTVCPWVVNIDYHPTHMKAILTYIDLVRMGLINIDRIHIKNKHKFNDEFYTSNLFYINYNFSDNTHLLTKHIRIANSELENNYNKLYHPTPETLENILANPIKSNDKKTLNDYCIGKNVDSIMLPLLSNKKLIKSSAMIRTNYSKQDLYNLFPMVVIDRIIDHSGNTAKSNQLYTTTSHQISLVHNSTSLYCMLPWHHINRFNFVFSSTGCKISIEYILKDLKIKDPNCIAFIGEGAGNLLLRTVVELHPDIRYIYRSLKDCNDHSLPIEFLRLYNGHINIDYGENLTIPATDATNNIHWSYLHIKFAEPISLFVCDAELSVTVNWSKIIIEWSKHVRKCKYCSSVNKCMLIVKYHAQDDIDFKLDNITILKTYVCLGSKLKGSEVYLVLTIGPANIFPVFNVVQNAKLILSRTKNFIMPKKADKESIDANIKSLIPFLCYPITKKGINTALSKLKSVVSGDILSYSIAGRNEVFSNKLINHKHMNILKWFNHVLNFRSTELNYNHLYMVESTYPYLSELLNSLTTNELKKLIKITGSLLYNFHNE
recombinant RSV complex, sequence (P03421 whole entry, further chain): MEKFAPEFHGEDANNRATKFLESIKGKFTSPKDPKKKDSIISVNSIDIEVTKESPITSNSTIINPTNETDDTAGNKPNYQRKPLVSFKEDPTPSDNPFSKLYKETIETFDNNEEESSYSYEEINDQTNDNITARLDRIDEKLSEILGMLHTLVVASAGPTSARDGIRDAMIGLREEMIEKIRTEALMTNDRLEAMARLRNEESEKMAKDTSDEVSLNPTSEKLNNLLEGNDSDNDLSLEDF

Structure (SMILES) | IC50 [1] [µM] | CC50 at 5 days [2] [µM] | EC50 [3, 4] [µM] | EC50 [3, 5] [µM]
COc1cc(C(=O)NCC(O)(c2cc3c(c(-c4ccc(F)c(Cl)c4)n2)OCC3(C)C)C(F)(F)F)ccc1OCC(N)=O (stereo not drawn) [Compound 210] | < 1 | 10 to 100 | < 1 | 
COc1cc(C(=O)NCC(O)(CN2CCCC2)c2ccc(OC)c(-c3ccc(F)c(Cl)c3)n2)ccc1OCCO (stereo not drawn) [Compound 187] | < 10 | > 100 |  | 1 to 50
COc1cc(C(=O)NCC(O)(c2ccc(OC)c(-c3ccc(F)c(Cl)c3)n2)C(F)(F)F)ccc1OC1CCCC1 (stereo not drawn) [Compound 236] | < 1 | > 100 |  | 1 to 50
COc1cc(C(=O)NCC(O)(c2cc3c(c(-c4ccc(Cl)c(Cl)c4)n2)OCC3(C)N)C(F)(F)F)ccc1OCCO (stereo not drawn) [Compound 662] | < 1 | 10 to 100 |  | < 1
COc1cc(C(=O)NCC(O)(c2cc3c(c(-c4ccc(F)c(Cl)c4)n2)OCC3(C)C)C(F)(F)F)cc2ccc(C(N)=O)nc12 (stereo not drawn) [Compound 214] | < 1 | 10 to 100 |  | < 1
COc1cc(C(=O)NC[C@](O)(c2cc3c(c(-c4ccc(F)cc4)n2)OC[C@@]3(C)N)C(F)(F)F)ccc1OC[C@@H](C)O [Compound 632] | < 1 | 10 to 100 |  | < 1
COc1cc(C(=O)NCC(O)(c2ccc(OC)c(-c3ccc(F)c(Cl)c3)n2)C(F)(F)F)ccc1OC1CCOC1 (stereo not drawn) [Compound 235] | < 1 | 10 to 100 |  | < 1
COc1ccc(C(=O)NCC(OC)c2cccc(-c3csc4c(F)cccc34)n2)cc1OC (stereo not drawn) [Compound 148] | < 10 | 10 to 100 |  | 1 to 50
COCC(C)(NC(C)=O)c1cc(-c2ccc(F)c(Cl)c2)nc(C(O)(CNC(=O)c2ccc(OC3CC3)c(OC)c2)C(F)(F)F)c1 (stereo not drawn) [Compound 537] | < 1 | 10 to 100 |  | < 1
COc1cc(C(=O)NC[C@@](O)(c2cc3c(c(-c4ccc(F)cc4)n2)OC[C@]3(C)N)C(F)(F)F)ccc1OC[C@@H](C)O [Compound 629] | < 1 | 10 to 100 |  | < 1
COc1cc(C(=O)NCC(C)(O)c2cc3c(c(-c4ccc(F)c(Cl)c4)n2)OCC3(C)C)ccc1OCCF (stereo not drawn) [Compound 227] | < 1 | 10 to 100 |  | < 1
CNc1ccc(C(O)(CNC(=O)c2ccc(OC3CC3)c(OC)c2)C(F)(F)F)nc1-c1ccc(F)c(Cl)c1 (stereo not drawn) [Compound 451] | < 1 | > 100 |  | < 1
COc1cc(C(=O)NCC(O)(CN2CCNCC2)c2ccc(OC)c(-c3ccc(F)c(Cl)c3)n2)ccc1OCCO (stereo not drawn) [Compound 190] | < 1 | > 100 | 1 to 50 | 
COc1cc(C(=O)NC[C@@](O)(c2cc(C(C)(C)N)cc(-c3ccc(F)cc3)n2)C(F)(F)F)ccc1OCCO [Compound 553] | < 1 | 10 to 100 |  | < 1
COc1cc(C(=O)NCC(=O)c2cc3c(c(-c4ccc(F)c(Cl)c4)n2)OCC3C)ccc1OCCO (stereo not drawn) [Compound 305] | < 1 | 10 to 100 |  | < 1
COc1cc(C(=O)NCC(O)(CN2CCOCC2)c2ccc(OC)c(-c3ccc(F)c(Cl)c3)n2)ccc1OCCO (stereo not drawn) [Compound 181] | < 1 | > 100 |  | < 1
COc1cc(C(=O)NCC(O)(c2cc3c(c(-c4ccc(C(F)(F)F)nc4)n2)OCC3(C)N)C(F)(F)F)ccc1OCCO (stereo not drawn) [Compound 673] | < 10 | > 100 |  | 1 to 50
COc1cc(C(=O)NCC(O)(c2ccc(OC)c(-c3ccc(F)c(Cl)c3)n2)C2CC2)ccc1CCCO (stereo not drawn) [Compound 426] | < 10 | 10 to 100 |  | < 1
COc1cc(C(=O)NCC(O)(c2ccc(OC)c(-c3ccc(F)c(Cl)c3)n2)C(F)(F)F)ccc1OCC(N)=O (single isomer, unassigned) [Compound 238] | < 1 | 10 to 100 |  | < 1
COc1cc(C(=O)NCC(O)(CN2CCNC(=O)C2)c2ccc(OC)c(-c3ccc(F)c(Cl)c3)n2)ccc1OCCO (stereo not drawn) [Compound 182] | < 1 | > 100 |  | < 1
CC(C)(N)c1cc(-c2ccc(F)cc2)nc(C(O)(CNC(=O)c2ccc3oc(=O)[nH]c3c2)C(F)(F)F)c1 (stereo not drawn) [Compound 610] | < 1 | 10 to 100 | < 1 | 
COc1cc(C(=O)NCC(O)(c2cc(C(C)(C)N)cc(-c3ccc(F)c(Cl)c3)n2)C(F)(F)F)ccc1O[C@@H]1CCNC1=O (stereo partly drawn) [Compound 285] | < 1 | 10 to 100 |  | < 1

Structure (SMILES) | IC50 [1] [µM] | CC50 at 5 days [2] [µM] | EC50 [3, 4] [µM] | EC50 [3, 5] [µM]
CC(C)(N)c1cc(-c2ccc(F)c(Cl)c2)nc(C(O)(CNC(=O)c2cncs2)C(F)(F)F)c1 (stereo not drawn) [Compound 278] | < 1 | 10 to 100 |  | 1 to 50
COc1ccc(C(O)(CNC(=O)c2ccc3[nH]cnc3c2)C(F)(F)F)nc1-c1ccc(F)c(Cl)c1 (stereo not drawn) [Compound 253] | < 10 | 10 to 100 |  | 1 to 50
COCc1ccc(C(=O)NCC(C)(O)c2ccc(OC)c(-c3ccc(F)c(Cl)c3)n2)cc1OC (stereo not drawn) [Compound 114] | < 10 | 10 to 100 |  | 1 to 50
COc1cc(C(=O)NCC(O)(c2cc3c(c(-c4ccc(F)c(Cl)c4)n2)OCC3(C)C)C(F)(F)F)ccc1CN1CCNC1=O (stereo not drawn) [Compound 216] | < 10 | 10 to 100 |  | 1 to 50
CCc1cc(-c2ccc(F)c(Cl)c2)nc(C(C)(O)CNC(=O)c2ccc(OCC(F)F)c(OC)c2)c1 (stereo not drawn) [Compound 440] | < 1 | 10 to 100 | 1 to 50 | 
Cc1ncc(C(=O)NCC(O)(c2cc(C(C)(C)N)cc(-c3ccc(F)cc3)n2)C(F)(F)F)[nH]1 (stereo not drawn) [Compound 609] | < 10 | 10 to 100 |  | 1 to 50
COc1cc(C(=O)NCC(O)(c2cc3c(c(-c4ccc(F)cc4)n2)OCC3(N)C(C)C)C(F)(F)F)ccc1OCCO (stereo not drawn) [Compound 565] | < 1 | 10 to 100 |  | < 1
COc1cc(C(=O)NCC(F)c2ccc(OC)c(-c3ccc(F)c(Cl)c3)n2)ccc1OCCO (stereo not drawn) [Compound 149] | < 10 | 10 to 100 |  | 1 to 50
COc1ccc(C(O)(CNC(=O)c2ccc(OCCO)c(Cl)c2)C(F)(F)F)nc1-c1ccc(F)c(Cl)c1 (stereo not drawn) [Compound 262] | < 1 | 10 to 100 |  | < 1
COc1cc(C(=O)NCC(O)(CN(C)C)c2ccc(OC)c(-c3ccc(F)c(Cl)c3)n2)ccc1OCCO (stereo not drawn) [Compound 178] | < 100 | > 100 |  | 1 to 50
COc1cc(C(=O)NCC(O)(c2ccc(OCCN)c(-c3ccc(F)cc3)n2)C(F)(F)F)ccc1OC1CC1 (stereo not drawn) [Compound 479] | < 1 | 10 to 100 |  | < 1
COc1ccc(C(O)(CNC(=O)c2ccc3ncoc3c2)C(F)(F)F)nc1-c1ccc(F)c(Cl)c1 (stereo not drawn) [Compound 266] | < 1 | 10 to 100 |  | 1 to 50
CC(C)(N)c1cc(-c2ccc(F)c(Cl)c2)nc(C(O)(CNC(=O)c2cscn2)C(F)(F)F)c1 (stereo not drawn) [Compound 277] | < 10 | 10 to 100 |  | 1 to 50
COc1ccc(C(O)(CNC(=O)c2ccc3c(c2)NC(=O)CO3)C(F)(F)F)nc1-c1ccc(F)c(Cl)c1 (stereo not drawn) [Compound 258] | < 1 | 10 to 100 |  | < 1
COc1cc(C(=O)NCC(O)(c2cc(C(C)(C)N)cc(-c3ccc(F)c(Cl)c3)n2)C(F)(F)F)ccc1NS(C)(=O)=O (stereo not drawn) [Compound 593] | < 1 | 10 to 100 |  | < 1
COc1cc(C(=O)NCC(O)(CN)c2ccc(OC)c(-c3ccc(F)c(Cl)c3)n2)ccc1OCCO (stereo not drawn) [Compound 179] | < 1 | > 100 |  | 1 to 50
COc1cc(C(=O)NCC(O)(c2ccc(OC)c(-c3ccc(F)c(Cl)c3)n2)C(F)(F)F)ccc1OCC(F)(F)F (stereo not drawn) [Compound 233] | < 1 | > 100 |  | 1 to 50
COc1cc(C(=O)NCC(O)(c2cc3c(c(-c4ccc(Cl)c(F)c4)n2)OCC3(C)N)C(F)(F)F)ccc1CO[C@@H](C)O (stereo partly drawn) [Compound 666] | < 1 | 10 to 100 |  | < 1
COc1cc(C(=O)NCC(O)(c2cc3c(c(-c4ccc(F)c(Cl)c4)n2)OCC3(C)C)C(F)(F)F)cc2ccc(C)nc12 (stereo not drawn) [Compound 213] | < 1 | > 100 |  | < 1
COc1cc(C(=O)NCC(O)(CO)c2cc3c(c(-c4ccc(F)c(Cl)c4)n2)OCC3(C)C)ccc1OC1CCNC1=O (stereo not drawn) [Compound 219] | < 1 | 10 to 100 |  | < 1
COc1cc(C(=O)NCC(O)(c2cc3c(c(-c4ccc(F)c(C(C)F)c4)n2)OCCC3(C)C)C2CC2)ccc1OCCO (stereo not drawn) [Compound 299] | < 1 | 10 to 100 |  | < 1
CC(C)(N)c1cc(-c2ccc(F)cc2)nc(C(O)(CNC(=O)c2ccc3c(c2)CNC(=O)N3)C(F)(F)F)c1 (stereo not drawn) [Compound 639] | < 1 | 10 to 100 |  | 1 to 50
